The test system of series [1] is layer of the RNFL nerve fibres. In words: Clinical observation: RNFL thickness by SD-OCT. It counts as in vivo, human. The settings on record: after 6 months of treatment, in addition to hypotensive therapy, 3 patients. As to the method: 12 randomized patients were included in 4 groups: • CIT. GROUP-3 patients treated with citicoline in oral solution 10 ml/die corresponding to 500 mg/die of citicoline, in addition to the hypotensive therapy; • NIC. […] The patients were treated and followed for 6 months. At baseline and after 6 months of treatment complete eye examination including visual acuity, control of the intraocular pressure (IOP) with Goldmann tonometry (GAT); visual field testing, electro-functional and morphological examination were performed. (3) The evaluation of the thickness of the layer of the RNFL nerve fibres was performed with spectral-domain optical coherence tomography SD-OCT (RTVue Model-RT100 version 3.5; Optovue Inc, Fremont, CA, USA). Such analysis allows a tomographic survey of retina capable of highlighting, through high-resolution cross sections, structural details of the cellular layers and of their plexuses and allows a qualitative and quantitative analysis of the retinal alterations. The patients were positioned in front of the instrument and invited to observe a luminous target: the instrument, once the ocular structure to be analysed is focused, performs the scanning.

For series [2], the system named is retinal ganglion cells. Description: Clinical observation: electro-functional test, PERG. Type of series: in vivo, human. As to conditions: after 6 months of treatment, in addition to hypotensive therapy, 3 patients. As to the method:
(§1) 12 randomized patients were included in 4 groups: • CIT. GROUP-3 patients treated with citicoline in oral solution 10 ml/die corresponding to 500 mg/die of citicoline, in addition to the hypotensive therapy; • NIC. […] The patients were treated and followed for 6 months. At baseline and after 6 months of treatment complete eye examination including visual acuity, control of the intraocular pressure (IOP) with Goldmann tonometry (GAT); visual field testing, electro-functional and morphological examination were performed. Then (2) electro-functional test was performed: electroretinogram from PERG pattern and of the PEV visual evoked potentials to evaluate the bioelectric responses respectively of the retinal ganglion cells and of the visual cortex evoked from the visual stimuli. The patients were positioned in an acoustically insulated semi-dark room, in front of the display surrounded by a uniform field of luminance of 5 cd/m2. […] The signal to PERG and PEV was recorded by a small electrode of Ag/AgCl positioned respectively above the lower eyelid and on the scalp. […] The peak-peak widths were measured at PERG P50-N95 for each wave. […] During a recording session, simultaneous PERG and PEV were recorded at least twice (between two and six times) and the resulting waveforms were overlapped to verify the repeatability of results. […]

The subject of series [3] is visual cortex. Description: Clinical observation: electro-functional test, PEV visual evoked potentials. Type of series: in vivo, human. The settings on record: after 6 months of treatment, in addition to hypotensive therapy, 3 patients. As for the experimental part: as §1
Series [4] has as its system patients affected by open-angle glaucoma. In words: Clinical observation: visual field testing by automatic perimetry (MD). It counts as in vivo, human. As to conditions: for change in MD: 6 months, vs baseline or not treated group; for MD: after 6 months of treatment, in addition to hypotensive therapy, 3 patients. As to the method:
12 randomized patients were included in 4 groups: • CIT. GROUP-3 patients treated with citicoline in oral solution 10 ml/die corresponding to 500 mg/die of citicoline, in addition to the hypotensive therapy; • NIC. […] The patients were treated and followed for 6 months. At baseline and after 6 months of treatment complete eye examination including visual acuity, control of the intraocular pressure (IOP) with Goldmann tonometry (GAT); visual field testing, electro-functional and morphological examination were performed. (1) The visual field testing was performed with automatic perimetry (HFA, Sita Standard 24-2 protocol; Zeiss, San Leandro, CA, USA). Such analysis represents the gold standard for diagnosis and follow-up of the glaucomatous patient and allows to represent graphically the extension in the space of the visual capability, by measuring even the peripheral vison thereof. Two analyses on each examination were performed and the second test was considered for the analysis. To perform the test, the patients were positioned in front of the instrument. After having rested forehead and chin inside the dome, with the covered unexamined eye, they started to fix a central target and pressed a button whenever they perceived against themselves aluminous stimulus, even if with poor intensity. MD was considered as perimetric index.

On the set-up of series [5]: species or system Sprague-Dawley rats. The settings on record: male, Sprague-Dawley, rat, in vivo. As to the method:
The bioavailability of citicoline existing in the composition, the invention relates to, was surveyed by making a bioavailability study on Sprague-Dawley rats. In particular, 30 Sprague-Dawley male rats, weighing 175 and 225 g, were subjected fasting 16 hours before administration.
For the preparation of the radiomarked formulations 14C-methylCiticoline and […] were used.
The preparations were purified by ion-exchange chromatography by using isobutyric acid:water-ammonia:EDTA (500:280:21:8), n-butanol:acetic acid:water (12:3:5), ethanol:1 mol/l ammonium acetate pH 7 (5:2), ethanol:saturated borax (8%):0.5 mol/l EDTA:5 mol/l ammonium acetate (220:80:0.5:20).
The samples were analysed with a liquid scintillator counter LSC, according to the programme for ^14C.
For the quantitative analysis Packard soluene (solubilizing agent), H2O2 (bleaching agent) and Packard Instagel (scintillator) were used as reagents.
The formulations were administered at the dose of 5 mg/kg respectively: Group 1, intravenously in the jugular vein; Group 2, in oral solution administered by nasogastric tube; Group 3, in tablets dissolved in saline solution and administered by nasogastric tube.
The collections of blood samples of about […] were obtained at programmed time (after administration at 10′, 20′, 30′, 1 h, 2 h, 3 h, 4 h, 5 h, 6 h, 7 h, 24 h). […]

Usually bioavailability stands for dose-corrected exposure relative to a reference, in per cent. Turning to `NC(=O)c1cccnc1` [Nicotinamide], in series [1], the RNFL-TO is recorded as 61.1 (±12.5). For the same molecule, the “PERG P50-N95 A” value in series [2] was 1.74 (±0.21) microV. In series [3], the “PEV P100 IT” value was 119.5 (±7.00) ms. In series [4], the “change in MD” value is given as “lower reduction in the MD value with respect to the not treated group” and the MD was −8.92 (±2.6)*^. Besides, the bioavailability in series [5] is about 100%.

In the case of `C[N+](C)(C)CCOP(=O)([O-])OP(=O)(O)OC[C@H]1O[C@@H](n2ccc(N)nc2=O)C(O)C1O` (stereo partly drawn) [Citicoline, citidin-5′-difosfocholine], the RNFL-TO in series [1] is recorded as 65.0 (±12.0). Further, the “PERG P50-N95 A” value in series [2] is given as 1.77 (±0.27) microV. In series [3], the “PEV P100 IT” value is reported as 119.1 (±7.22) ms. Further, in series [4], the “change in MD” value was “significant improvement in MD with respect to the baseline” and the MD is reported as −8.70 (±2.8). Moreover, the bioavailability in series [5] is given as about 100%.

For the origin of these results see patent US20240261315A1 (Omikron Italia S.r.l., priority 2021, published 2024).
